Data from publication PMC9317966, “Structure-function analysis of the AMPK activator SC4 and identification of a potent pan AMPK activator” (Biochemical Journal, 2022).

Legend:
[1] = target: T1, human GST-AMPK α1β1γ1 (Homo sapiens, UniProt Q13131+Q9Y478); assay: Radiolabel SAMS kinase assay, GST-AMPK from HEK293T/17 cells immobilised on glutathione-Sepharose; assay type: biochemical
T1 construct: triply transfected with full-length AMPK α1 or α2 (NH2-terminal GST fusion, pDEST27 vector); full-length AMPK α1 or α2 (NH2-terminal GST fusion, pDEST27 vector), β1 or β2 (COOH-terminal FLAG fusion, pcDNA3.1 vector); FLAG (C); made in house; host or cells: HEK293T/17 cells, transient triple transfection
T1 sequence (Q13131 whole entry, the tested form may be a part): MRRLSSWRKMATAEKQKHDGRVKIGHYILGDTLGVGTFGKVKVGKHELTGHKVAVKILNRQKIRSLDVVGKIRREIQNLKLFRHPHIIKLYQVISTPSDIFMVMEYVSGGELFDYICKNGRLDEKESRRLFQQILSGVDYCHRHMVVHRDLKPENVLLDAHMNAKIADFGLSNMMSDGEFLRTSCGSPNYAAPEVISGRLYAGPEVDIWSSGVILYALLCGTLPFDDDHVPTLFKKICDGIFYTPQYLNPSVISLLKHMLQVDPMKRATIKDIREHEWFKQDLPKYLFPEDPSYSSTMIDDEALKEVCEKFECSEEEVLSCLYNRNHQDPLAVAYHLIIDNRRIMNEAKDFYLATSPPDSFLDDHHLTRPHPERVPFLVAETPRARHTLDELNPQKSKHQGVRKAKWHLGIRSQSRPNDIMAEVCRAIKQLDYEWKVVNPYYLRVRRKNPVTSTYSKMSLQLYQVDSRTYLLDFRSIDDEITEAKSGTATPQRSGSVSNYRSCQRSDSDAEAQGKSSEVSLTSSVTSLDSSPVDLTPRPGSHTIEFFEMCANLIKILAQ
T1 sequence (Q9Y478 whole entry, the tested form may be a part): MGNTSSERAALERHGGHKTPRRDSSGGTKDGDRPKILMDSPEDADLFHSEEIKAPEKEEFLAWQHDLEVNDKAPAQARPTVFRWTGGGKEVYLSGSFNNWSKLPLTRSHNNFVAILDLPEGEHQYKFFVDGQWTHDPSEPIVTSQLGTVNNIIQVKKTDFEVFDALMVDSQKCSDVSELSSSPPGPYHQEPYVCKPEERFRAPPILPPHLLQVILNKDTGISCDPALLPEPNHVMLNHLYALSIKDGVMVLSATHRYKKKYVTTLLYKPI
T1 sequence (P54619 whole entry partner, the tested form may be a part): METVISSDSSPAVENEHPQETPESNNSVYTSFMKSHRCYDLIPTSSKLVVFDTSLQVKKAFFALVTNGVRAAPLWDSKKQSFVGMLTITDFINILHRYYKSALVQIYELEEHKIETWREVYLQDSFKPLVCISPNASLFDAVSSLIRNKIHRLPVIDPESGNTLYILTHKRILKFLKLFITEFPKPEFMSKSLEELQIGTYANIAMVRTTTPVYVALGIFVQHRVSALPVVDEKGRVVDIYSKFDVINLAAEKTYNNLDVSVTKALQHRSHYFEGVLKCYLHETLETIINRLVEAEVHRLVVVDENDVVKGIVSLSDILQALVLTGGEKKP
Source text: (§1) We generated a series of compounds to investigate whether modification of the SC4 2-hydroxybiphenyl LHS fragment affects isoform selectivity, some of which (MSG008-MSG011) are presented in Table 1. We also synthesised compound MSG012 (example I-3-54 [32]), which was reported to activate α2β2γ1 with ∼100-fold greater potency compared with α1β1γ1. MSG012 differs from SC4 by substitution of the 2-hydroxyphenyl LHS fragment with 3-cyclohexen-4-yl-1-carboxylic acid, and 2-methylbenzoic acid RHS fragment with 1-hydroxy-N,N-dimethylcyclohexan-4-yl-1-carboxamide. Our initial screen involved measuring the activity of recombinant human GST-AMPK complexes expressed in HEK293T/17 cells and immobilised on glutathione-Sepharose (Supplementary Figure S1). Enzyme activity was measured by radiolabelling the synthetic SAMS peptide substrate in the absence or presence of 1 µM compound. Consistent with our previous characterisation, SC4 activated α1β1γ1, α2β1γ1 and α2β2γ1 >2.3-fold, and weakly activated α1β2γ1 1.3-fold (Figure 1A). […] The γ isoform had little influence on AMPK activation by MSG011 as most γ2 and γ3 complexes were activated >2.2-fold at 1 µM, with α1β2γ2 being the only exception (1.6-fold activation). […] Accordingly, MSG010, MSG011 and MSG012 can be classified as pan AMPK activators.
(§2) Adherent HEK293T/17 cells at ∼50% confluency were triply transfected with full-length AMPK α1 or α2 (NH2-terminal GST fusion, pDEST27 vector), β1 or β2 (COOH-terminal FLAG fusion, pcDNA3.1 vector), and γ1, γ2 or γ3 (NH2-terminal HA fusion, pMT2 vector) in the presence of FuGENE HD transfection reagent (Promega) as per the manufacturers protocol. Cells were harvested 48 hours post-transfection by first gently washing in ice cold phosphate buffered saline (PBS; Sigma–Aldrich), then scraping in ice cold lysis buffer (50 mM TRIS pH 7.5, 150 mM NaCl, 10% (v/v) glycerol, 50 mM NaF, 5 mM sodium pyrophosphate, 1% (v/v) Triton X-100, cOmplete protease inhibitor cocktail). Lysates were clarified by centrifugation (16 000g, 3 min, 4°C), flash frozen in liquid N2 and stored at −80°C until analysis. For radioactive kinase assays, AMPK was immobilised on glutathione Sepharose 4B resin (GE Healthcare) by incubation with lysates for 1.5 h at 4°C. Following centrifugation (1000g, 3 min, 4°C), the resin was washed twice in purification buffer (50 mM HEPES pH 7.4, 150 mM NaCl, 10% (v/v) glycerol, 0.02% (v/v) Tween-20), once in 50 mM HEPES pH 7.4 with 0.02% (v/v) Tween-20, then resuspended to a 50% slurry with 50 mM HEPES pH 7.4 and 10 µl added to the activity assays. For in solution kinase assays, α1β1γ1 AMPK was eluted from glutathione-Sepharose by incubating with purification buffer supplemented with 40 mM reduced glutathione (Sigma–Aldrich).
(§3) AMPK activity was determined by phosphorylation of the SAMS peptide (Purar Chemicals, sequence: NH2-HMRSAMSGLHLVKRR-COOH) in a 25 µl reaction volume containing 100 µM SAMS peptide, 5 mM MgCl2, 200 µM ATP, [γ-^32P]-ATP (PerkinElmer) and assay buffer (50 mM HEPES pH 7.4, 1 mM DTT and 0.02% (v/v) Tween-20) and purified AMPK. Phosphotransferase activity was conducted at 30°C for 10 min and reactions were quenched by spotting 15 µl onto phosphocellulose ion-exchange chromatography paper (made in-house), followed by repeated washes in 1% H3PO4 (Merck Millipore). Ultima Gold liquid scintillation fluid (5 ml; PerkinElmer) was added to vials containing dried phosphocellulose papers, and the level of ^32P-transfer to the SAMS peptide was determined using a Tri-Carb 2900TR liquid scintillation counter (PerkinElmer).

[2] = target: γ1AMPK complexes; assay: Radiolabel kinase assay, immobilised GST-tagged γ1AMPK (stated across γ1 complexes); assay type: biochemical, human
Source text: We directly compared in vitro potencies of pan activators by performing radiolabel kinase assays with γ1AMPK complexes. Initially, we used GST-tagged γ1AMPK expressed in HEK293T/17 cells and immobilised on glutathione-Sepharose (Figure 2 and Table 2). […] These assays used AMPK purified from Sf9 insect cells or E. coli that was pre-treated with CaMKK2. […] However, relative to immobilised GST-α2β1γ1 from HEK293T/17 cells, His-tagged and myristoylated α2β1γ1 AMPK (expressed in E. coli, CaMKK2-treated and assayed in solution) was at least 10-fold more sensitive to activation by both MK-8722 and MSG011 (Supplementary Figure S3B), indicating the GST-affinity tag or CaMKK2 treatment may exert some influence on sensitivity to these activators.
as §2
as §3, with “Phosphotransferase activity was conducted at 30°C for 10 min and reactions were quenched by spotting 15 µl onto phosphocellulose ion-exchange chromatography paper (made in-house), followed by repeated washes in 1% H3PO4 (Merck Millipore).” left out

[3] = target: T2, human GST-AMPK α1β2γ1 (Homo sapiens, UniProt O43741+Q13131); assay: Radiolabel SAMS kinase assay, GST-AMPK from HEK293T/17 cells immobilised on glutathione-Sepharose; assay type: biochemical; settings: 1 µM compound
T2 construct: triply transfected with full-length AMPK α1 or α2 (NH2-terminal GST fusion, pDEST27 vector); full-length AMPK α1 or α2 (NH2-terminal GST fusion, pDEST27 vector), β1 or β2 (COOH-terminal FLAG fusion, pcDNA3.1 vector); FLAG (C); made in house; host or cells: HEK293T/17 cells, transient triple transfection
T2 sequence (Q13131 whole entry, the tested form may be a part): as the sequence (Q13131 whole entry, the tested form may be a part) above
T2 sequence (O43741 whole entry, the tested form may be a part): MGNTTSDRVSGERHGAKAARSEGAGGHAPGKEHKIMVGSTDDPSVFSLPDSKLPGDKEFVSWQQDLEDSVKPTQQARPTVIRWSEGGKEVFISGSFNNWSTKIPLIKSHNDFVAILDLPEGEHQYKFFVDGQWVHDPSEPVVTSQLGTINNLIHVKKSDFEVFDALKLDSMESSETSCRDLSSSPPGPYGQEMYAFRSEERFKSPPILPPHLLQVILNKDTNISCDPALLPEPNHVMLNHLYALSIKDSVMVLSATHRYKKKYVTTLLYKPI
T2 sequence (P54619 whole entry partner, the tested form may be a part): as the sequence (P54619 whole entry partner, the tested form may be a part) above
Source text: as §1, §2, §3

[4] = target: T3, human GST-AMPK α2β2γ1 (Homo sapiens, UniProt O43741+P54646); assay: as above; assay type: biochemical; settings: 1 µM compound
T3 construct: triply transfected with full-length AMPK α1 or α2 (NH2-terminal GST fusion, pDEST27 vector); full-length AMPK α1 or α2 (NH2-terminal GST fusion, pDEST27 vector), β1 or β2 (COOH-terminal FLAG fusion, pcDNA3.1 vector); FLAG (C); made in house; host or cells: HEK293T/17 cells, transient triple transfection
T3 sequence (P54646 whole entry, the tested form may be a part): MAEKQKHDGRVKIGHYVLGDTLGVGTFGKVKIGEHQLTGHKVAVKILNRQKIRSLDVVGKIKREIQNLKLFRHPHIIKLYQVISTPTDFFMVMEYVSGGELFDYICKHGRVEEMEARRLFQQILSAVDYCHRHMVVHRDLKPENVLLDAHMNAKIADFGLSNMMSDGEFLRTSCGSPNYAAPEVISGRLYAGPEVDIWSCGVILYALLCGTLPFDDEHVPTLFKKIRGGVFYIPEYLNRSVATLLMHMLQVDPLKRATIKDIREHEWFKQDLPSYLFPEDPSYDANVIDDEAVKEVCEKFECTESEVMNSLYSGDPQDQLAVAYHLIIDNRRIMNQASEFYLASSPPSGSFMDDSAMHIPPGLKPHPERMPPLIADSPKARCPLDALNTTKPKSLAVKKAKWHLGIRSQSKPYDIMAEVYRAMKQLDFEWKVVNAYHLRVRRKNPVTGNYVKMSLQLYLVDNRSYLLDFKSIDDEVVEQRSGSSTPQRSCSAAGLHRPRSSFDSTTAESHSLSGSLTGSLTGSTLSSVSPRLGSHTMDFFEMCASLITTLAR
T3 sequence (O43741 whole entry, the tested form may be a part): as the sequence (O43741 whole entry, the tested form may be a part) above
T3 sequence (P54619 whole entry partner, the tested form may be a part): as the sequence (P54619 whole entry partner, the tested form may be a part) above
Source text: as §1, §2, §3

[5] = target: T4, human GST-AMPK α2β1γ1 (Homo sapiens, UniProt P54646+Q9Y478); assay: as above; assay type: biochemical; settings: 1 µM compound
T4 construct: triply transfected with full-length AMPK α1 or α2 (NH2-terminal GST fusion, pDEST27 vector); full-length AMPK α1 or α2 (NH2-terminal GST fusion, pDEST27 vector), β1 or β2 (COOH-terminal FLAG fusion, pcDNA3.1 vector); FLAG (C); made in house; host or cells: HEK293T/17 cells, transient triple transfection
T4 sequence (P54646 whole entry, the tested form may be a part): as the sequence (P54646 whole entry, the tested form may be a part) above
T4 sequence (Q9Y478 whole entry, the tested form may be a part): as the sequence (Q9Y478 whole entry, the tested form may be a part) above
T4 sequence (P54619 whole entry partner, the tested form may be a part): as the sequence (P54619 whole entry partner, the tested form may be a part) above
Source text: as §1, §2, §3

Row | Max. fold activation ([1]; immobilised α1β1γ1) [fold] | EC50 ([1]; immobilised α1β1γ1, 0–30 µM activator) [µM] | EC50 fold higher than previously determined by high-throughput fluorescence-based assays in solution ([2]; compared with refs 17, 18) | EC50 ([2]; immobilised GST-γ1AMPK, read-out: EC50 values for γ1AMPK activation) [µM] | fold AMPK activation relative to vehicle [3] [fold] | fold AMPK activation relative to vehicle [4] | fold AMPK activation relative to vehicle ([1]; 1 µM compound) | fold AMPK activation relative to vehicle [5] | SMILES
1 | 1.7 | 2.01 | 100–1000 fold | 2 | – | – | – | – | OCC1(c2ccc(-c3cc4nc(O[C@@H]5CO[C@H]6[C@@H]5OC[C@H]6O)[nH]c4cc3Cl)cc2)CC1 [PF-739, reference compound]
2 | – | – | – | – | 1.5 | reduced fold activation relative to SC4 | reduced fold activation relative to SC4 | reduced fold activation relative to SC4 | Cc1ccc(Oc2nc3nc(C#Cc4ccccc4O)c(Cl)cc3[nH]2)cc1C(=O)O [MSG009, 5-((6-Chloro-5-((2-hydroxyphenyl)ethynyl)-1H-imidazo[4,5-b]pyridin-2-yl)oxy)-2-methylbenzoic acid]
